These are literature values, as cited in patent EP4052553A1, “AGRICHEMICAL COMPOSITION FOR TREATING SEEDS AND USE THEREOF” (priority 2019, dated 2021).

The conditions of this data set: distilled water at 20°C.
Regarding `CS(=O)(=O)c1ccc(C(=O)C2=C(Sc3ccccc3)C3CCC(C3)C2=O)c(Cl)c1` (stereo not drawn) [benzobicyclon], the aqueous solubility is listed as 0.052 ppm. Regarding `CCCOCCN(C(=O)CCl)c1c(CC)cccc1CC` [pretilachlor], the aqueous solubility is recorded as 74 ppm. As for `COc1ccc(-n2c(=O)c(C(=O)C3C(=O)CCCC3=O)nc3c(Cl)cccc32)cc1` [fenquinotrione], the aqueous solubility is 17 ppm. In the case of `COc1cc(OC)nc(NC(=O)NS(=O)(=O)Nc2ccccc2C(=O)C2CC2)n1` [cyclosulfamuron], the aqueous solubility was 0.34 ppm. As for `COc1cc(OC)nc(Oc2cccc(Oc3nc(OC)cc(OC)n3)c2C(=O)ON=C(c2ccccc2)c2ccccc2)n1` [pyribenzoxim], the aqueous solubility is reported as 3.5 ppm. `CO/N=C(/C)c1cccc(Oc2nc(OC)cc(OC)n2)c1C(=O)OC` [pyriminobac-methyl]: the aqueous solubility is on record as 9.3 ppm. `Cc1ccc(C(=O)COc2c(C(=O)c3ccc(Cl)c(C)c3Cl)c(C)nn2C)cc1` [benzofenap]: the aqueous solubility is on record as 0.12 ppm. `CCCc1ccc2nc(Cl)c(S(=O)(=O)NC(=O)Nc3nc(OC)cc(OC)n3)n2n1` [propyrisulfuron]: the aqueous solubility is reported as 0.98 ppm. Take `CCOC(=O)c1cnn(C)c1S(=O)(=O)NC(=O)Nc1nc(OC)cc(OC)n1` [pyrazosulfuron-ethyl]: the aqueous solubility is given as 9.8 ppm. As to `CC(C)=C1OC(=O)N(c2cc(OC3CCCC3)c(Cl)cc2F)C1=O` [pentoxazone], the aqueous solubility is 0.22 ppm. As for `COc1cc(OC)nc(Sc2cccc3c2C(=O)OC3C)n1` (stereo not drawn) [pyriftalid], the aqueous solubility is 1.8 ppm. `CCC(CC)Nc1c([N+](=O)[O-])cc(C)c(C)c1[N+](=O)[O-]` [Pendimethalin]: the aqueous solubility is on record as 0.26 ppm. Regarding `C#CCN(C)c1c(C#N)cnn1-c1nn2c(c1Cl)CCCC2` [pyraclonil], the aqueous solubility is 50.1 ppm. For the compound `COc1nc(OC)nc(C(=O)c2cccc(F)c2N(C)S(=O)(=O)C(F)F)n1` [triafamone], the aqueous solubility is 41 ppm. Regarding `C[C@@H](Oc1ccc(Oc2nc3ccc(Cl)cc3o2)cc1)C(=O)N(C)c1ccccc1F` [metamifop], the aqueous solubility is given as 0.69 ppm. As for `COCc1cccc(C(O)c2nc(OC)cc(OC)n2)c1NS(=O)(=O)C(F)F` (stereo not drawn) [pyrimisulfan], the aqueous solubility was 87 ppm. In the case of `CCOC(=O)c1ccccc1S(=O)(=O)NC(=O)Nc1nc(Cl)cc(OC)n1` [chlorimuron-ethyl], the aqueous solubility is 8.6 ppm. For `COC(=O)c1c(Cl)nn(C)c1S(=O)(=O)NC(=O)Nc1nc(OC)cc(OC)n1` [halosulfuron-methyl], the aqueous solubility is reported as 10.2 ppm.
